A short description of data set [1]: In vitro drug release in SGF for 48 h. It is filed as physicochemical. To be noted: 37° C., casein 0-5% (w/v). The protocol:
In vitro release study was conducted in SGF for 48 h. In some experiments, the study was conducted in SGF, followed by SIF, where the total duration in SGF and SIF is 48 h. Each microcapsule sample (20 mg) was added to a bottle containing SGF or SIF medium (20 mL). Both SGF and SIF bottles were placed in a 37° C. rotating incubator. At different time points, half of the medium (10 mL) in each bottle was extracted and replaced with 10 mL new medium. The time points included intervals of hours within a 48-hour period. The drug content in the extracted medium was analyzed using RP-HPLC with the procedure mentioned in Example 1 for determining encapsulation efficiency.

The conditions of data set [2]: cited from earlier work.
The nature of data set [3]: Plasma pharmacokinetics after oral gavage in mice. It is filed as in vivo. The settings on record: for MRT: mouse, plasma, oral, Table 3. The protocol: The experimental mice were divided into two groups (control and F2) each comprising of five animals. Control formulation (as a solution) was prepared fresh each experimental day in 0.6% methyl cellulose diluted with saline solution. Mice were subsequently administered with 200 ul (control) or 300 μl (pellet) single dose of drug solution at LD:CD:ENT=10:2.5:20 mg·kg^−1 (Group 1, conventional formulation) and LD:CD:ENT=10:2.5:20 mg·kg^−1 (Group 2, F2 via oral gavage using a feeding syringe. At stipulated time points of 0.25, 0.5, 1, 2, 4, 8, 12, 24 hr, the mice were euthanized and blood was collected via cardiac puncture with ethylenediaminetetraacetic acid (EDTA) as the anticoagulant. The blood samples were then centrifuged (4,500 rpm) for 10 min at 25° C. to obtain the plasma. In addition, the brain was harvested and flash freeze in liquid nitrogen. Samples were stored in −80° C. before further analysis via LC/MS. Analysis of drugs in plasma and brain was conducted using LC/MS (Ribeiro et al., (2015). Bioanalysis, 7, 207-220). An Agilent 1290 HPLC system with an Agilent 6120 Quadrupole Mass Spectrometer was used to measure plasma and brain concentrations of drugs. The mobile phase consisted of a gradient of (A) 0.1% (v/v) formic acid (FA) and a mixture of ACN:MeOH (90:10, v/v) containing 0.1% (v/v) FA.
XBridge C8 column (150×4.6 mm; particle size 5 μm) was used at 30° C. The injection volume of samples was 20 μl. Plasma and brain extracted solution were mixed with internal standard and extracted by solid-phase extraction. The calibration curves were linear over the range of 2 to 2000 ng/mL for LD, 2 to 400 ng/mL for CD and 5 to 3000 ng/mL for ENT.

The mark [4] stands for this setting: casein-microcapsule versus control.

Read-outs that look alike come from different tables or passages of the source.

`CC[C@@H](CO)NCCN[C@@H](CC)CO` [ETH, ethambutol]: the “Release rate of drug from microcapsules versus casein concentration” value in data set [1] is given as “independent of casein concentration”. For the same compound, in data set [2], the “Log P” value was −0.14.
With `NNC(=O)c1ccncc1` [ISO, isoniazid], the “Release rate of drug from microcapsules versus casein concentration” value in data set [1] is recorded as “independent of casein concentration”. Moreover, the “Log P” value in data set [2] is recorded as −0.7.
For `C[C@@](Cc1ccc(O)c(O)c1)(NN)C(=O)O` [CD, carbidopa], the “Release rate of drug from microcapsules versus casein concentration” value in data set [1] is reported as “independent of casein concentration”.
Regarding `CO[C@H]1/C=C/O[C@@]2(C)Oc3c(C)c(O)c4c(O)c(c(/C=N/N5CCN(C)CC5)c(O)c4c3C2=O)NC(=O)/C(C)=C\C=C\[C@H](C)[C@H](O)[C@@H](C)[C@@H](O)[C@@H](C)[C@H](OC(C)=O)[C@@H]1C` [RIF, rifampicin], in data set [2], the “Log P” value is on record as 4.24.
For the compound `N[C@@H](Cc1ccc(O)c(O)c1)C(=O)O` [LD, levodopa], the “Release rate of drug from microcapsules versus casein concentration” value in data set [1] is “independent of casein concentration”. Besides, in data set [3] (setting [4]), the “increase of MRT of levodopa” value was around 4 × and the “increase of bioavailability (AUC) of levodopa” value is 2.8 ×. The MRT in data set [3] (given as casein-microcapsule, read-out: mean residence time (MRT) of levodopa, casein-microcapsule) came out at 10.1 h. The MRT in data set [3] (given as control formulation, read-out: mean residence time (MRT) of levodopa, control) is 2.6 h.
In the case of `CN(C)C(=N)N=C(N)N` [MET, metformin], the “Release rate of drug from microcapsules versus casein concentration” value in data set [1] is recorded as “independent of casein concentration”.

The record behind these values is patent US20200163896A1, “FLOATABLE PHARMACEUTICAL MICROCAPSULE COMPOSITION” (Nanyang Technological University, priority 2017, published 2020).
